Structures can show the parent of a compound that is named as a salt.

The assay has as its target T1, RIPK1 (Homo sapiens, UniProt Q13546).
T1 construct: recombinant GST-RIPK1 kinase domain (residues 1-327) enzyme produced from baculovirus-transfected Sf21 cells; host or cells: baculovirus-transfected Sf21 insect cells
T1 sequence (Q13546 1-327): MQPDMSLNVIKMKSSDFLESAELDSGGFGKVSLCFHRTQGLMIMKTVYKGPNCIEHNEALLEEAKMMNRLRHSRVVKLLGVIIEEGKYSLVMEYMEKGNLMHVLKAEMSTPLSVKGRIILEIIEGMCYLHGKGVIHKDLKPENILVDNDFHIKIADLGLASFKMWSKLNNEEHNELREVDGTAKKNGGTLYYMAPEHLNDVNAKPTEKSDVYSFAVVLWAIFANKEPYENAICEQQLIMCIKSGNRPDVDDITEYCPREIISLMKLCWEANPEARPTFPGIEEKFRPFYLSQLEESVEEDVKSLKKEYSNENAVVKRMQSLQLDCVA
Put plainly: RIPK1-ADP-Glo enzymatic assay. The format is biochemical. The following applies: ADP-Glo luminescent ADP detection; 25 nM GST-RIPK1 kinase domain (residues 1-327), 300 μM ATP, dephosphorylated-MBP substrate; 30 min pre-incubation, 150 min reaction. The method, then:
RIPK1-ADP-Glo Enzymatic Assay
The enzymatic activity of RIPK1 is measured using an assay derived from ADP-Glo kit (Promega™), which provides a luminescent-based ADP detection system. Specifically, the ADP generated by RIPK1 kinase is proportionally detected as luminescent signals in a homogenous fashion. In this context, the assessment of the inhibitory effect of small molecules (EC50) is measured by the effectiveness of the compounds to inhibit the ATP to ADP conversion by RIPK1.
In this assay, the potency (EC50) of each compound was determined from a ten-point (1:3 serial dilution; top compound concentration of 100000 nM) titration curve using the following outlined procedure. To each well of a white ProxiPlus 384 well-plate, 30 nL of compound (1% DMSO in final assay volume of 3 μL) was dispensed, followed by the addition of 2 μL of 1×assay buffer (25 mM Hepes 7.3, 20 mM MgCl2, 50 mM NaCl, 1 mM DTT, 0.005% Tween20, and 0.02% BSA) containing 37.5 nM of GST-RIPK1 (recombinant GST-RIPK1 kinase domain (residues 1-327) enzyme produced from baculovirus-transfected Sf21 cells: MW=62 kDa). Plates were placed in an ambient temperature humidified chamber for a 30 minutes pre-incubation with compound. Subsequently, each reaction was initiated by the addition of 1 μL 1×assay buffer containing 900 μM ATP and […] dephosphorylated-MBP substrate. The final reaction in each well of 3 μL consists of 25 nM of GST-RIPK1, 300 μM ATP, and 3 μM dephosphorylated-MBP. Kinase reactions were allowed to proceed for 150 minutes prior to adding ADP-Glo reagents per Promega's outlined kit protocol. Dose-response curves were generated by plotting percent effect (% product conversion; Y-axis) vs. Log10 compound concentrations (X-axis). EC50 values were calculated using a non-linear regression, four-parameters sigmoidal dose-response model.
(ADP-Glo turns the ADP formed in a reaction into a luminescent signal.)
Consider `CC1(Oc2ccccc2)CN(C(=O)N2N=CCC2c2cc(F)cc(F)c2)C1` (racemic) [Example 1.2, (R and S)-(5-(3,5-difluorophenyl)-4,5-dihydro-1H-pyrazol-1-yl)(3-methyl-3-phenoxyazetidin-1-yl)methanone, TFA salt], for which the EC50 was 9.7 nM.
Next, `N#Cc1cc(OC2CN(C(=O)N3N=CCC3c3cc(F)cc(F)c3)C2)ncn1` (racemic) [Example 1.5, (R and S)-6-((1-(5-(3,5-difluorophenyl)-4,5-dihydro-1H-pyrazole-1-carbonyl)azetidin-3-yl)oxy)pyrimidine-4-carbonitrile, TFA salt]: 140 nM; `C[C@@H]1[C@H](Oc2ccccc2)CN1C(=O)N1N=CC[C@H]1c1cc(F)cc(F)c1` (racemic) [Example 1.11, ((S)-5-(3,5-difluorophenyl)-4,5-dihydro-1H-pyrazol-1-yl)((2R,3R and 2S,3S)-2-methyl-3-phenoxyazetidin-1-yl)methanone, TFA salt]: 11.8 nM; `O=C(N1CCC1c1ccccc1F)N1N=CC[C@H]1c1cc(F)cc(F)c1` (mixture of isomers) [Example 1.21, ((S)-5-(3,5-difluorophenyl)-4,5-dihydro-1H-pyrazol-1-yl)((R and S)-2-(2-fluorophenyl)azetidin-1-yl)methanone]: 27.6 nM.
`O=C(N1CCC1Cc1ccccc1)N1N=CC[C@H]1c1cc(F)cc(F)c1` (mixture of isomers) [Example 1.22, ((S)-2-benzylazetidin-1-yl)((R and S)-5-(3,5-difluorophenyl)-4,5-dihydro-1H-pyrazol-1-yl)methanone] had an EC50 of 73.6 nM.
As for `COC(=O)C1CC12CN(C(=O)N1N=CC[C@H]1c1cc(F)cc(F)c1)C2` (mixture of isomers) [Example 1.47, methyl (R and S)-5-((S)-5-(3,5-difluorophenyl)-4,5-dihydro-1H-pyrazole-1-carbonyl)-5-azaspiro[2.3]hexane-1-carboxylate], it took 195 nM to reach a half-maximal effect (EC50).
Next, `N#Cc1cc(OC2CN(C(=O)N3N=CC[C@H]3c3cc(F)cc(F)c3)C2)ncn1` (single isomer, unassigned) [Example 1.6]: 83 nM.
In turn, `C[C@H]1[C@H](Oc2ccccc2)CN1C(=O)N1N=CC[C@H]1c1cc(F)cc(F)c1` (single isomer, unassigned) [Example 1.9, ((S)-5-(3,5-difluorophenyl)-4,5-dihydro-1H-pyrazol-1-yl)((2S,3R or 2R,3S)-2-methyl-3-phenoxyazetidin-1-yl)methanone, TFA salt] displayed an EC50 of 104 nM.
Compound `C[C@@H]1[C@@H](Oc2ccccc2)CN1C(=O)N1N=CC[C@H]1c1cc(F)cc(F)c1` (single isomer, unassigned) [Example 1.10, ((S)-5-(3,5-difluorophenyl)-4,5-dihydro-1H-pyrazol-1-yl)((2R,3S or 2S,3R)-2-methyl-3-phenoxyazetidin-1-yl)methanone, TFA salt] displayed an EC50 of 10.5 nM.
With `C[C@@H]1[C@H](Oc2ccccc2)CN1C(=O)N1N=CC[C@H]1c1cc(F)cc(F)c1` (single isomer, unassigned) [Example 1.12, ((S)-5-(3,5-difluorophenyl)-4,5-dihydro-1H-pyrazol-1-yl)((2R,3R or 2S,3S)-2-methyl-3-phenoxyazetidin-1-yl)methanone, TFA salt], the EC50 was found to be 8.8 nM.
Turning to `C[C@H]1[C@@H](Oc2ccccc2)CN1C(=O)N1N=CC[C@H]1c1cc(F)cc(F)c1` (single isomer, unassigned) [Example 1.13, ((S)-5-(3,5-difluorophenyl)-4,5-dihydro-1H-pyrazol-1-yl)((2S,3S or 2R,3R)-2-methyl-3-phenoxyazetidin-1-yl)methanone, TFA salt], the EC50 is 7.6 nM.
In turn, `O=C(N1CC(Oc2ccccc2)C1)N1N=CC[C@@H]1c1ccccc1` (single isomer, unassigned) [Example 2.4] returned an EC50 of 5000 nM.
In turn, `O=C(N1CC(Oc2ccccc2)C1)N1N=CC[C@H]1c1ccccc1` (single isomer, unassigned) [Example 2.5] came in with an EC50 of 0.5 nM. Compared with the last compound, the EC50 is about 10000-fold lower.
Regarding `CC1(Oc2ccc(F)cc2)CN(C(=O)N2N=CC[C@H]2c2cncc(F)c2)C1` (single isomer, unassigned) [Example 2.31], the EC50 was 17.1 nM.
In turn, `Cc1ncc([C@@H]2CC=NN2C(=O)N2CC(Oc3ccc(F)cc3)C2)cc1F` (single isomer, unassigned) [Example 2.40] had a concentration giving a half-maximal response (EC50) of 14.7 nM.
Next, `CC(c1ccccc1)C1CN(C(=O)N2N=CC[C@H]2c2cc(F)cc(F)c2)C1` (single isomer, unassigned) [Example 2.42, ((S)-5-(3,5-difluorophenyl)-4,5-dihydro-1H-pyrazol-1-yl)(3-((R or S)-1-phenylethyl)azetidin-1-yl)methanone]: 18.6 nM.
`CC(c1ccccc1)C1CN(C(=O)N2N=CC[C@H]2c2cc(F)cc(F)c2)C1` (single isomer, unassigned) [Example 2.43, ((S)-5-(3,5-difluorophenyl)-4,5-dihydro-1H-pyrazol-1-yl)(3-((S or R)-1-phenylethyl)azetidin-1-yl)methanone]: the concentration giving a half-maximal response (EC50) stood at 46.7 nM.
With `CC1(Oc2ccccc2)CN(C(=O)N2N=CC[C@H]2c2cc(F)cc(F)c2)C1` [Example 1.1, (S)-(5-(3,5-difluorophenyl)-4,5-dihydro-1H-pyrazol-1-yl)(3-methyl-3-phenoxyazetidin-1-yl)methanone, TFA salt], the midpoint of the response, the EC50, lay at 2.5 nM.
Take `O=C(N1CC(Oc2ccccc2)C1)N1N=CC[C@@H]1c1cc(F)cc(F)c1` [Example 1.4, (R)-(5-(3,5-difluorophenyl)-4,5-dihydro-1H-pyrazol-1-yl)(3-phenoxyazetidin-1-yl)methanone, TFA salt]: it took 600 nM to reach a half-maximal effect (EC50). This EC50 is about 240-fold higher than that of the compound before.
Regarding `O=C(N1CC(Oc2cccnc2)C1)N1N=CC[C@H]1c1cc(F)cc(F)c1` [Example 1.7, (S)-(5-(3,5-difluorophenyl)-4,5-dihydro-1H-pyrazol-1-yl)(3-(pyridin-3-yloxy)azetidin-1-yl)methanone, TFA salt], the EC50 is 12.8 nM. Compared with the last compound, the EC50 is about 47-fold lower.
Compound `O=C(N1CC(Oc2ccncc2)C1)N1N=CC[C@H]1c1cc(F)cc(F)c1` [Example 1.8, (S)-(5-(3,5-difluorophenyl)-4,5-dihydro-1H-pyrazol-1-yl)(3-(pyridin-4-yloxy)azetidin-1-yl)methanone, TFA salt] had an EC50 of 8.7 nM. This EC50 and that of the compound before are within 1.5-fold of each other.
In turn, `O=C(N1CC(Cc2ccccc2)C1)N1N=CC[C@H]1c1cc(F)cc(F)c1` [Example 1.14, (S)-(3-benzylazetidin-1-yl)(5-(3,5-difluorophenyl)-4,5-dihydro-1H-pyrazol-1-yl)methanone, TFA salt] had a 50% effective concentration (EC50) of 6.1 nM. This EC50 and that of the compound before are within 1.5-fold of each other.
Take `O=C(N1CC(O)C1)N1N=CC[C@H]1c1cc(F)cc(F)c1` [Example 1.15, (S)-(5-(3,5-difluorophenyl)-4,5-dihydro-1H-pyrazol-1-yl)(3-hydroxyazetidin-1-yl)methanone]: the EC50 is 3680 nM.
Regarding `O=C(N1CC(OC2CCCC2)C1)N1N=CC[C@H]1c1cc(F)cc(F)c1` [Example 1.17, (S)-(3-(cyclopentyloxy)azetidin-1-yl)(5-(3,5-difluorophenyl)-4,5-dihydro-1H-pyrazol-1-yl)methanone, TFA salt], it took 11.5 nM to reach a half-maximal effect (EC50).
`O=C(N1CC(c2ncccn2)C1)N1N=CC[C@H]1c1cc(F)cc(F)c1` [Example 1.18, (S)-(5-(3,5-difluorophenyl)-4,5-dihydro-1H-pyrazol-1-yl)(3-(pyrimidin-2-yl)azetidin-1-yl)methanone] gave an EC50 of 325 nM.
For `O=C(N1CC2(C1)CN(c1ccccn1)C2)N1N=CC[C@H]1c1cc(F)cc(F)c1` [Example 1.19, (S)-(5-(3,5-difluorophenyl)-4,5-dihydro-1H-pyrazol-1-yl)(6-(pyridin-2-yl)-2,6-diazaspiro[3.3]heptan-2-yl)methanone, TFA salt], the EC50 was 3450 nM.
Next, `CS(=O)(=O)N1CCC2(CC1)CN(C(=O)N1N=CC[C@H]1c1cc(F)cc(F)c1)C2` [Example 1.20, (S)-(5-(3,5-difluorophenyl)-4,5-dihydro-1H-pyrazol-1-yl)(7-(methylsulfonyl)-2,7-diazaspiro[3.5]nonan-2-yl)methanone]: 1320 nM.
As for `CC(C)OC1CN(C(=O)N2N=CC[C@H]2c2cc(F)cc(F)c2)C1` [Example 1.24, (S)-(5-(3,5-difluorophenyl)-4,5-dihydro-1H-pyrazol-1-yl)(3-isopropoxyazetidin-1-yl)methanone], the concentration for a half-maximal effect (EC50) worked out at 29.9 nM.

As usually defined, the EC50 is the concentration at which the effect is half-maximal. The low end stands for higher potency in that assay, the high end for lower potency in that assay.

The values are drawn from patent US20230265094A1, “RIPK1 INHIBITORS AND METHODS OF USE” (Merck Sharp & Dohme LLC, priority 2020, published 2023).
